24 compounds from patent publication US8163771B2, “11 β-HSD1 modulators” (Exelixis, Inc., priority 2008, dated 2012) can be followed below.

In the experiment the target is T1, recombinant human 11 β-HSD1 (Homo sapiens, UniProt P28845).
T1 construct: made in house; host or cells: E. coli
The experiment can be described thus: 11 β-HSD1 SPA Assay (Scintillation Proximity Assay). Format: biochemical. The protocol: (§1) Inhibition of 11 βHSD1 by test compounds was assessed in vitro by a Scintillation Proximity Assay (SPA). The assay was carried out in a 384-well assay plate in a total well volume of 26 μl and contained a mixture of tritiated cortisone substrate (40 nM), NADPH cofactor (1 mM), inhibitor in serial dilutions ([…] to 10 μM), and purified E. coli-expressed recombinant human 11 βHSD1 (30-100 nM) in assay buffer (50 mM HEPES, 100 mM KCl, 5 mM NaCl, and 2 mM MgCl2, pH7.4). Following mixing, the plate was incubated for 2 hours at room temperature. Reactions were stopped by addition of 30 μl of protein A YSi SPA beads (10 mg/ml) that had been pre-incubated with glycyrrhetinic acid (1 mM) and a monoclonal cortisol antibody (3 μg/ml). The plate was then incubated overnight at room temperature prior to reading on a Microbeta counter. Percent inhibition of each compound was calculated based on the background and the maximal signals. Wells that contained substrate without compound or enzyme were used as the background signal, while the wells that contained substrate and enzyme without any compound were used as the maximal signal. The calculation of the IC50 values for the inhibitors was performed by Activity Base.
as §1, with “β-HSD1” for “βHSD1”
In general terms: Scintillation proximity formats need no separation of bound from free tracer.

pIC50: −log10 of the molar value.

T1 sequence (P28845 whole entry): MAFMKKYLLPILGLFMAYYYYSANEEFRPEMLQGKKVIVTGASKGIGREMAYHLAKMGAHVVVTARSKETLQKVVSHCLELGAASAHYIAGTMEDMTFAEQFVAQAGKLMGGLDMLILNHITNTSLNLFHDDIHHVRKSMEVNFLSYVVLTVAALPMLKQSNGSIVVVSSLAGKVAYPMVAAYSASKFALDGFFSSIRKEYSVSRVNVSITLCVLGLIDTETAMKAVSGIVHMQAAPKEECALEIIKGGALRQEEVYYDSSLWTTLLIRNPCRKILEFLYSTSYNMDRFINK

On to `CC(C)(Oc1ccc(F)cc1Cl)C(=O)N[C@H]1C[C@H]2CC[C@@H](C1)N2c1ccc(C(=O)NCC(F)(F)F)cn1` [Example 52, 6-[3-endo-({2-[(2-chloro-4-fluorophenyl)oxy]-2-methylpropanoyl}amino)-8-azabicyclo[3.2.1]oct-8-yl]-N-(2,2,2-trifluoroethyl)pyridine-3-carboxamide], for which the negative-log IC50 (pIC50) was over 6.70.
As to `CC(C)NC(=O)c1ccc(N2[C@@H]3CC[C@H]2C[C@@H](NC(=O)C(C)(C)Oc2ccc(Cl)cc2Cl)C3)nc1` [Example 54, 6-[3-endo-({2-[(2,4-dichlorophenyl)oxy]-2-methylpropanoyl}amino)-8-azabicyclo[3.2.1]oct-8-yl]-N-(1-methylethyl)pyridine-3-carboxamide], the pIC50 was over 6.70.
With `CC(C)(Oc1ccc(Cl)cc1Cl)C(=O)N[C@H]1C[C@H]2CC[C@@H](C1)N2c1ccc(C#N)cn1` [Example 55, N-[8-(5-cyanopyridin-2-yl)-8-azabicyclo[3.2.1]oct-3-endo-yl]-2-[(2,4-dichlorophenyl)oxy]-2-methylpropanamide], the pIC50 is over 6.70.
For the compound `CC(C)(Oc1ccc(Cl)cc1Cl)C(=O)N[C@H]1C[C@H]2CC[C@@H](C1)N2c1ccc(C(N)=O)cn1` [Example 56, 6-[3-endo-({2-[(2,4-dichlorophenyl)oxy]-2-methylpropanoyl}amino)-8-azabicyclo[3.2.1]oct-8-yl]pyridine-3-carboxamide], the pIC50 was over 6.70.
`CC(=O)c1ccc(N2[C@@H]3CC[C@H]2C[C@@H](NC(=O)C2(c4ccc(Cl)cc4)CC2)C3)nc1` [Example 57, N-[8-(5-acetylpyridin-2-yl)-8-azabicyclo[3.2.1]oct-3-endo-yl]-1-(4-chlorophenyl)cyclopropanecarboxamide]: the pIC50 is over 6.70.
With `CC(=O)Nc1ccc(N2[C@@H]3CC[C@H]2C[C@@H](NC(=O)C2(c4ccc(Cl)cc4)CC2)C3)nc1` [Example 58, N-{8-[5-(acetylamino)pyridin-2-yl]-8-azabicyclo[3.2.1]oct-3-endo-yl}-1-(4-chlorophenyl)cyclopropanecarboxamide], the pIC50 was over 6.70.
With `O=C(Nc1ccc(N2[C@@H]3CC[C@H]2C[C@@H](NC(=O)C2(c4ccc(Cl)cc4)CC2)C3)nc1)C1CC1` [Example 59, 1-(4-chlorophenyl)-N-(8-{5-[(cyclopropylcarbonyl)amino]pyridin-2-yl}-8-azabicyclo[3.2.1]oct-3-endo-yl)cyclopropanecarboxamide] the figure was over 6.70; with `CS(=O)(=O)Nc1ccc(N2[C@@H]3CC[C@H]2C[C@@H](NC(=O)C2(c4ccc(Cl)cc4)CC2)C3)nc1` [Example 60, 1-(4-chlorophenyl)-N-(8-{5-[(methylsulfonyl)amino]pyridin-2-yl}-8-azabicyclo[3.2.1]oct-3-endo-yl)cyclopropanecarboxamide], over 6.70.
As to `Nc1ccc(N2[C@@H]3CC[C@H]2C[C@@H](NC(=O)C2(c4ccc(Cl)cc4)CC2)C3)nc1` [Example 61, N-[8-(5-aminopyridin-2-yl)-8-azabicyclo[3.2.1]oct-3-endo-yl]-1-(4-chlorophenyl)cyclopropanecarboxamide], the pIC50 is over 6.70.
On to `O=C(NC1CC1)c1ccc(N2[C@@H]3CC[C@H]2C[C@@H](NC(=O)C2(c4ccc(Cl)cc4)CC2)C3)cc1` [Example 62, 4-[3-endo-({[1-(4-chlorophenyl)cyclopropyl]carbonyl}amino)-8-azabicyclo[3.2.1]oct-8-yl]-N-cyclopropylbenzamide], for which the pIC50 is over 6.70.
The value for `O=C(NC1CC1)c1ccc(N2[C@@H]3CC[C@H]2C[C@@H](NC(=O)C2(c4ccc(Cl)cc4)CC2)C3)cc1Cl` [Example 63, 2-chloro-4-[3-endo-({[1-(4-chlorophenyl)cyclopropyl]carbonyl}amino)-8-azabicyclo[3.2.1]oct-8-yl]-N-cyclopropylbenzamide] was over 6.70; that for `O=C(NC1CC1)c1ccc(N2[C@@H]3CC[C@H]2C[C@@H](NC(=O)C2(Oc4ccc(Cl)cc4)CC2)C3)nc1` [Example 64, 6-{3-endo-[({1-[(4-chlorophenyl)oxy]cyclopropyl}carbonyl)amino]-8-azabicyclo[3.2.1]oct-8-yl}-N-cyclopropylpyridine-3-carboxamide] was over 6.70; that for `CC(C)(Oc1ccc(Cl)cc1Cl)C(=O)N[C@H]1C[C@H]2CC[C@@H](C1)N2c1ccc(C(=O)NCC(F)(F)F)cn1` [Example 65, 6-[3-endo-({2-[(2,4-dichlorophenyl)oxy]-2-methylpropanoyl}amino)-8-azabicyclo[3.2.1]oct-8-yl]-N-(2,2,2-trifluoroethyl)pyridine-3-carboxamide] was over 6.70.
With `CC(C)(Oc1ccc(Cl)cc1)C(=O)N[C@H]1C[C@H]2CC[C@@H](C1)N2c1cnccn1` [Example 66, 2-[(4-chlorophenyl)oxy]-2-methyl-N-(8-pyrazin-2-yl-8-azabicyclo[3.2.1]oct-3-endo-yl)propanamide], the pIC50 is over 6.70.
As to `COCCNC(=O)c1ccc(N2[C@@H]3CC[C@H]2C[C@@H](NC(=O)C(C)Oc2ccc(Cl)cc2)C3)nc1` (stereo partly drawn) [Example 67, 6-[3-endo-({2-[(4-chlorophenyl)oxy]propanoyl}amino)-8-azabicyclo[3.2.1]oct-8-yl]-N-[2-(methyloxy)ethyl]pyridine-3-carboxamide], the pIC50 is over 5.00.
Take `COCCNC(=O)c1ccc(N2[C@@H]3CC[C@H]2C[C@@H](NC(=O)C(C)Oc2ccc(Cl)cc2Cl)C3)nc1` (stereo partly drawn) [Example 68, 6-[3-endo-({2-[(2,4-dichlorophenyl)oxy]propanoyl}amino)-8-azabicyclo[3.2.1]oct-8-yl]-N-[2-(methyloxy)ethyl]pyridine-3-carboxamide]: the pIC50 is over 5.70.
Turning to `CC(C)(Oc1cc(F)ccc1Cl)C(=O)N[C@H]1C[C@H]2CC[C@@H](C1)N2c1ccc(C(=O)NC2CC2)cn1` [Example 69, 6-[3-endo-({2-[(2-chloro-5-fluorophenyl)oxy]-2-methylpropanoyl}amino)-8-azabicyclo[3.2.1]oct-8-yl]-N-cyclopropylpyridine-3-carboxamide], the pIC50 was over 6.70.
In the case of `CC(C)NC(=O)c1ccc(N2[C@@H]3CC[C@H]2C[C@@H](NC(=O)C(C)(C)Oc2ccc(F)cc2Cl)C3)nc1` [Example 70, 6-[3-endo-({2-[(2-chloro-4-fluorophenyl)oxy]-2-methylpropanoyl}amino)-8-azabicyclo[3.2.1]oct-8-yl]-N-(1-methylethyl)pyridine-3-carboxamide], the pIC50 is over 6.70.
The value for `CC(C)(Oc1cc(Cl)ccc1Cl)C(=O)N[C@H]1C[C@H]2CC[C@@H](C1)N2c1ccc(C(=O)NC2CC2)cn1` [Example 71, N-cyclopropyl-6-[3-endo-({2-[(2,5-dichlorophenyl)oxy]-2-methylpropanoyl}amino)-8-azabicyclo[3.2.1]oct-8-yl]pyridine-3-carboxamide] was over 6.70; that for `CC(C)(Oc1cc(Cl)ccc1Cl)C(=O)N[C@H]1C[C@H]2CC[C@@H](C1)N2c1ccc(C(=O)NCC(F)(F)F)cn1` [Example 72, 6-[3-endo-({2-[(2,5-dichlorophenyl)oxy]-2-methylpropanoyl}amino)-8-azabicyclo[3.2.1]oct-8-yl]-N-(2,2,2-trifluoroethyl)pyridine-3-carboxamide] was over 6.70; that for `CC(C)(Oc1cc(F)ccc1Cl)C(=O)N[C@H]1C[C@H]2CC[C@@H](C1)N2c1ccc(C(=O)NCC(F)(F)F)cn1` [Example 73, 6-[3-endo-({2-[(2-chloro-5-fluorophenyl)oxy]-2-methylpropanoyl}amino)-8-azabicyclo[3.2.1]oct-8-yl]-N-(2,2,2-trifluoroethyl)pyridine-3-carboxamide] was over 6.70.
The value for `CC(C)(Oc1ccc(F)cc1Cl)C(=O)N[C@H]1C[C@H]2CC[C@@H](C1)N2c1ccc(C(N)=O)cn1` [Example 74, 6-[3-endo-({2-[(2-chloro-4-fluorophenyl)oxy]-2-methylpropanoyl}amino)-8-azabicyclo[3.2.1]oct-8-yl]pyridine-3-carboxamide] was over 6.70; that for `CC(C)(Oc1cc(F)c(F)cc1Cl)C(=O)N[C@H]1C[C@H]2CC[C@@H](C1)N2c1ccc(C(=O)NCC(F)(F)F)cn1` [Example 75, 6-[3-endo-({2-[(2-chloro-4,5-difluorophenyl)oxy]-2-methylpropanoyl}amino)-8-azabicyclo[3.2.1]oct-8-yl]-N-(2,2,2-trifluoroethyl)pyridine-3-carboxamide] was over 6.70; that for `CC(C)(Oc1cc(F)c(Cl)cc1Cl)C(=O)N[C@H]1C[C@H]2CC[C@@H](C1)N2c1ccc(C(N)=O)cn1` [Example 76, 6-[3-endo-({2-[(2,4-dichloro-5-fluorophenyl)oxy]-2-methylpropanoyl}amino)-8-azabicyclo[3.2.1]oct-8-yl]pyridine-3-carboxamide] was over 6.70.

A word on the pIC50: it is the negative decadic logarithm of the IC50, by convention in mol/L.
